A word on the AC50: it is the midpoint of the concentration-response curve, whichever way the signal moves. Low values mean greater potency, high ones weaker potency.

Test [1] has as its target T1, Alpha-1A adrenergic receptor (Homo sapiens, UniProt P35348).
T1 sequence (P35348 whole entry): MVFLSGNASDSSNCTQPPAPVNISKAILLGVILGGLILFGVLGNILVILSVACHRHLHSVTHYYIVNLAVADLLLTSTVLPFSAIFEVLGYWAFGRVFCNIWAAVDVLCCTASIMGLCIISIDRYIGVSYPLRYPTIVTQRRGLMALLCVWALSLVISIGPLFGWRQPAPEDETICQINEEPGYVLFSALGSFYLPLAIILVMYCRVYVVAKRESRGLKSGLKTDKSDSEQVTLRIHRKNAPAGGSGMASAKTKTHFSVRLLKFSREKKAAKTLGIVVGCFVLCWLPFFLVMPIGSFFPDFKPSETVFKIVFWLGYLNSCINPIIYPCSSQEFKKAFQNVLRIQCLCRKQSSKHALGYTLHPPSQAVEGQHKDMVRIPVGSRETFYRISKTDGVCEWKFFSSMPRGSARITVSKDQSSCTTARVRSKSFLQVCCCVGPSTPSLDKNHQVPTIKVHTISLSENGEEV
Format: functional, cell-based.

The next test addresses Melanocortin receptor 4 (Homo sapiens, UniProt P32245).
For test [2], the target named is T2, Prostaglandin G/H synthase 1 (Rattus norvegicus, UniProt Q63921).
T2 sequence (Q63921 whole entry): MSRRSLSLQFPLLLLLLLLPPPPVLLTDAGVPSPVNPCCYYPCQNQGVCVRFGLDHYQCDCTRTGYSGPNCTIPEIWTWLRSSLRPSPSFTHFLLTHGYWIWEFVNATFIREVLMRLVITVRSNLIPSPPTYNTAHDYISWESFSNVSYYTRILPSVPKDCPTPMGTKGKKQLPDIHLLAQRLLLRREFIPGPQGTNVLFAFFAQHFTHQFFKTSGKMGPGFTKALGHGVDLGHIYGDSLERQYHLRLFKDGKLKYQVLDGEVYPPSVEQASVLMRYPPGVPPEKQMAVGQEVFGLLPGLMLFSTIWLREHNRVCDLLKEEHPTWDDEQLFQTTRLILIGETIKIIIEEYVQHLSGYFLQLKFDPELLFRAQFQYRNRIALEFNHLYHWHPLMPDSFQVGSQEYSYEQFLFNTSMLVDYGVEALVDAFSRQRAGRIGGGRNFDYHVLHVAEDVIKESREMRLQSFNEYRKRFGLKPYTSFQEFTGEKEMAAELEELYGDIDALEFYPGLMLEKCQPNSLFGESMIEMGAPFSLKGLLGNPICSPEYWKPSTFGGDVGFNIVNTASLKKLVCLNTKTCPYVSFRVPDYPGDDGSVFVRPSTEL
Format: functional.

Test [3] addresses 3',5'-cyclic-AMP phosphodiesterase 4D (Homo sapiens, UniProt Q08499). Format: functional.
Test [4] has as its target T3, Type-1 angiotensin II receptor (Homo sapiens, UniProt P30556).
T3 sequence (P30556 whole entry): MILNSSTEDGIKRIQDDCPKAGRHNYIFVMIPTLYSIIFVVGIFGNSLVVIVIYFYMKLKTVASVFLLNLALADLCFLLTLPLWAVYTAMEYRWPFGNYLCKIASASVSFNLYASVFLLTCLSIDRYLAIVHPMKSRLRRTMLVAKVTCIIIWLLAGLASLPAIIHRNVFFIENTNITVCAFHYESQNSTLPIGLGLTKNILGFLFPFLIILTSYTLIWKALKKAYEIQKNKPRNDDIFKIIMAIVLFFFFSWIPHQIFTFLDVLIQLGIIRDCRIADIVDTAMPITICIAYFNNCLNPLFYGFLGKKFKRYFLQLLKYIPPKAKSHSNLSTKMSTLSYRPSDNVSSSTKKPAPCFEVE

In test [5] the target is Gamma-aminobutyric acid receptor subunit alpha-1 (Rattus norvegicus, UniProt P62813).
Test [6] addresses Prostaglandin G/H synthase 1 (Homo sapiens, UniProt P23219). Format: functional.
Another test has as its target T4, Progesterone receptor (Homo sapiens, UniProt P06401).
T4 sequence (P06401 whole entry): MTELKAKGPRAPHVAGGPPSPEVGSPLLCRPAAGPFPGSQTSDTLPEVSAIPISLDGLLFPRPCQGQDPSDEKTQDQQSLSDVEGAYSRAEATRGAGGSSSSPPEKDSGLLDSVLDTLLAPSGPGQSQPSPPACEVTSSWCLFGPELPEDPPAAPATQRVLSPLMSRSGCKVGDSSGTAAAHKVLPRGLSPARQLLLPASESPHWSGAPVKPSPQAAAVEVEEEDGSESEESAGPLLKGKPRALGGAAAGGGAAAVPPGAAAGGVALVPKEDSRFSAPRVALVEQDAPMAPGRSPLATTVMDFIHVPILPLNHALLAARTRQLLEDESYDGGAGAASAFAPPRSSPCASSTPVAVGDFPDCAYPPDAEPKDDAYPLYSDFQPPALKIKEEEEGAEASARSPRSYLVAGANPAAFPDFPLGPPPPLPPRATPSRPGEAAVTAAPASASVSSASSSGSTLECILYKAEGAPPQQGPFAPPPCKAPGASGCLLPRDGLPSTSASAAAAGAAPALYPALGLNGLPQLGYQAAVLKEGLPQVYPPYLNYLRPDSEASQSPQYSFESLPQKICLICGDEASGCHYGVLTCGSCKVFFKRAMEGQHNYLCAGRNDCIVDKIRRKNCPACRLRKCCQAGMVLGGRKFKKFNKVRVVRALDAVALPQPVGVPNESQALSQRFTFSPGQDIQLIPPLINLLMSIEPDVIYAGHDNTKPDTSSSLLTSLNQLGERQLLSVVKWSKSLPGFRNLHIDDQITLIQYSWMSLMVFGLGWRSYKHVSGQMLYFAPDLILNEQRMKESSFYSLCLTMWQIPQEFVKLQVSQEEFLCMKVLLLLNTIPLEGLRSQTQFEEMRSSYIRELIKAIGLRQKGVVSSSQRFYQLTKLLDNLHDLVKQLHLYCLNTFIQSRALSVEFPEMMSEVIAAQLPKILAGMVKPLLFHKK

For test [7], the target named is T1, Alpha-1A adrenergic receptor. In kind it is functional, cell-based. The source holds these as a separate data set.
Also: assay procedure not described here.

Melanocortin receptor 4, sequence (P32245 whole entry): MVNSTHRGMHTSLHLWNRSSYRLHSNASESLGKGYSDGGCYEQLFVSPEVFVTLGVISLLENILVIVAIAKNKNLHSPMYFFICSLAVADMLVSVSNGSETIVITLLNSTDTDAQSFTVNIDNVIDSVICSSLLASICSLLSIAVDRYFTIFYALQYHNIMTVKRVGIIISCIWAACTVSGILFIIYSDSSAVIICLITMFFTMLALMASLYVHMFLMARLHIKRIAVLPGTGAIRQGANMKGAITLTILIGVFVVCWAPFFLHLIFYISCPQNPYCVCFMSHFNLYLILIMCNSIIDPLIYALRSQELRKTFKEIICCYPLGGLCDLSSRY
Gamma-aminobutyric acid receptor subunit alpha-1, sequence (P62813 whole entry): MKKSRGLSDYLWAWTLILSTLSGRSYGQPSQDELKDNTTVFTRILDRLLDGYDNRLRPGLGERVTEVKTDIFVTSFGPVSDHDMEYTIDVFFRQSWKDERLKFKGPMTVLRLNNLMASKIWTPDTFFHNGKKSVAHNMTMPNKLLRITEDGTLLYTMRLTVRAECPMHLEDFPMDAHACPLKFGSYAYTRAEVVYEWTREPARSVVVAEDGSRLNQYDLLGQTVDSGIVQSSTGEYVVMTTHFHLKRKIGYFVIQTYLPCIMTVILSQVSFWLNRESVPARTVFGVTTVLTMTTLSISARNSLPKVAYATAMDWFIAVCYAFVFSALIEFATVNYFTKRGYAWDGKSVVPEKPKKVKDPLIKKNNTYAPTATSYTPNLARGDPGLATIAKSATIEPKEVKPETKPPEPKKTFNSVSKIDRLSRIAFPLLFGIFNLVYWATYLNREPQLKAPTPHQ
3',5'-cyclic-AMP phosphodiesterase 4D, sequence (Q08499 whole entry): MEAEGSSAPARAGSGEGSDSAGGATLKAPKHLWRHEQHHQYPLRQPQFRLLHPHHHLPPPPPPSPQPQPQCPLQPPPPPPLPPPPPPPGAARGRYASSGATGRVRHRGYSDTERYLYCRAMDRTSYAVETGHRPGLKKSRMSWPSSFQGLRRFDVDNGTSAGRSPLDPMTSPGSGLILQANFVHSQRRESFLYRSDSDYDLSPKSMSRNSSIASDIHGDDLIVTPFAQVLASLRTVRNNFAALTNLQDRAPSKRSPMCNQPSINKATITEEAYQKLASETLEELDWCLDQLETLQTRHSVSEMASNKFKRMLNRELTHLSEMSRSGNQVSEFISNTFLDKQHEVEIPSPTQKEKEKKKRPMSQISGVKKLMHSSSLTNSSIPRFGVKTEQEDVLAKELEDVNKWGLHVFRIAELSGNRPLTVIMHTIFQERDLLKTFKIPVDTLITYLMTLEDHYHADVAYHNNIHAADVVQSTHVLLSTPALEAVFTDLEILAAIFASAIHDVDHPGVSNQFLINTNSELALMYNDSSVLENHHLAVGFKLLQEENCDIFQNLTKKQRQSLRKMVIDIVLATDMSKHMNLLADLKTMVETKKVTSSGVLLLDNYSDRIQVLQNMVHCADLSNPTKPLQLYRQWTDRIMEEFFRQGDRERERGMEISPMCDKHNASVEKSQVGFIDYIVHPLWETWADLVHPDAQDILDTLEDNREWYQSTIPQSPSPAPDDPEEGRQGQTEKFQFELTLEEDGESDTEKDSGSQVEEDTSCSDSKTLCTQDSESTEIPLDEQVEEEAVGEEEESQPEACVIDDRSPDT
Prostaglandin G/H synthase 1 (Homo sapiens, UniProt P23219), sequence (P23219 whole entry): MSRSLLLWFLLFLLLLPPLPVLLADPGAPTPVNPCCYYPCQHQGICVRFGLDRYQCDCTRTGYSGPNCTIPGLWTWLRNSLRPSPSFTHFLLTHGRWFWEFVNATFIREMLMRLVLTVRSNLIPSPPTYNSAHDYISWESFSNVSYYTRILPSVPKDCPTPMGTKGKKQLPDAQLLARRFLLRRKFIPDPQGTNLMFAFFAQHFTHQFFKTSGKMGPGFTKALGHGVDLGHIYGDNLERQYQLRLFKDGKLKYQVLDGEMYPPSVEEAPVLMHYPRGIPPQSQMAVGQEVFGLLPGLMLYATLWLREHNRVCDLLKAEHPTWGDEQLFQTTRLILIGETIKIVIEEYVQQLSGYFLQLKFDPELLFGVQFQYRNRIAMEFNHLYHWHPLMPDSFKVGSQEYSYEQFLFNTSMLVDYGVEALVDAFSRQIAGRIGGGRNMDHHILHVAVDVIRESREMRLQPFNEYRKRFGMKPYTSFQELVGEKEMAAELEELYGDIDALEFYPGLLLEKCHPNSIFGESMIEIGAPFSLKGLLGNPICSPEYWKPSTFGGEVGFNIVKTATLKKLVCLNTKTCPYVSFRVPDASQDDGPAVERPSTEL

Regarding `O=C1c2cccc3c2[C@H](CCC3)CN1[C@@H]1CN2CCC1CC2` [PALONOSETRON], the AC50 in [1] was 29 µM; on Melanocortin receptor 4, greater than 30 µM; in test [2], greater than 30 µM; in [3], greater than 30 µM; in test [4], greater than 30 µM; in test [5] it was greater than 30 µM.
For `C[N+]1(C)CCC(=C(c2ccccc2)c2ccccc2)CC1`, the AC50 at Melanocortin receptor 4 is greater than 30 µM; in [2] it was greater than 10 µM; in [3], greater than 30 µM; in [4], greater than 10 µM; in test [5] it was greater than 10 µM.
Regarding `CC(C)(Oc1ccc(CCNC(=O)c2ccc(Cl)cc2)cc1)C(=O)O` [BEZAFIBRATE], the AC50 in test [1] was greater than 30 µM; at Melanocortin receptor 4, greater than 10 µM; in test [2] it was greater than 10 µM; in [3] it was greater than 30 µM; in [4], greater than 10 µM; in test [5], greater than 10 µM.
With `Cc1ccccc1N1C(=O)c2cc(S(N)(=O)=O)c(Cl)cc2NC1C` (centres undefined) [METOLAZONE], the AC50 is greater than 10 µM on Melanocortin receptor 4; greater than 10 µM in test [2]; greater than 30 µM in [3]; greater than 10 µM in [4]; greater than 10 µM in [5].
For `COc1ccc([C@@H]2CC(=O)c3c(O)cc(O)cc3O2)cc1O` [HESPERETIN], the AC50 on Melanocortin receptor 4 is greater than 10 µM; in test [2], 30.7 µM; in test [3] it was 30 µM; in test [4] it was greater than 10 µM; in test [5], greater than 10 µM.
On to `N#Cc1ccc(Oc2ccc3c(c2)COB3O)cc1` [CRISABOROLE], for which the AC50 is greater than 30 µM in [6], greater than 30 µM at Progesterone receptor, 0.8 µM in test [3] and greater than 30 µM in test [7].
With `C=C1c2cccc(O)c2C(=O)C2=C(O)[C@]3(O)C(=O)C(C(N)=O)=C(O)[C@@H](N(C)C)[C@@H]3[C@@H](O)[C@H]12` [METHACYCLINE], the AC50 at Melanocortin receptor 4 is 41.5 µM; in [2], greater than 30 µM; in test [3] it was greater than 30 µM; in test [4], greater than 10 µM; in test [5] it was greater than 10 µM.
For `CC(=O)OC[C@H]1O[C@@H](n2ncc(=O)[nH]c2=O)[C@H](OC(C)=O)[C@@H]1OC(C)=O` [AZARIBINE], the AC50 (in test [6]; at Progesterone receptor; in [7]) was greater than 30 µM throughout.
Take `CCOC(=O)c1ccc(N)cc1` [BENZOCAINE]: the AC50 is greater than 10 µM on Melanocortin receptor 4; greater than 10 µM in test [2]; greater than 30 µM in test [3]; greater than 10 µM in [4]; greater than 10 µM in test [5].
As to `CC1(CCN2CCCCC2)C(=O)CCc2ccccc21` (centres undefined) [NEPINALONE], the AC50 (in [6]; on Progesterone receptor; in test [7]) was greater than 30 µM in each case.
Regarding `Cc1ccc(C(=O)C(C)CN2CCCCC2)cc1` (centres undefined) [TOLPERISONE], the AC50 (in test [6]; at Progesterone receptor; in [7]) was greater than 30 µM each time.
For the compound `CCC[C@H](N[C@@H](C)C(=O)N1[C@H](C(=O)O)C[C@@H]2CCCC[C@@H]21)C(=O)OCC` [PERINDOPRIL], the AC50 (in test [6]; on Progesterone receptor; in [7]) was greater than 30 µM in each case.
For the compound `CN[C@@H](C)[C@@H](O)c1ccccc1` [PSEUDOEPHEDRINE], the AC50 was greater than 30 µM on Melanocortin receptor 4; greater than 30 µM in test [2]; greater than 30 µM in test [3]; greater than 30 µM in test [4]; greater than 10 µM in test [5].
`COc1ccc(OC)c(C(O)C(C)N)c1` (centres undefined) [METHOXAMINE]: the results for the AC50 (in test [6]; at Progesterone receptor; in test [7]) were greater than 30 µM, greater than 30 µM and 0.021 µM, respectively.
`CC1(C)S[C@@H]2[C@H](/N=C/N3CCCCCC3)C(=O)N2[C@H]1C(=O)O` [AMDINOCILLIN]: the AC50 (in test [6]; at Progesterone receptor; in test [7]) was greater than 30 µM each time.
On to `C/C=C(/C(=C/C)c1ccc(O)cc1)c1ccc(O)cc1` [DIENESTROL], for which the AC50 on Melanocortin receptor 4 was greater than 10 µM; in test [2], greater than 30 µM; in test [3] it was greater than 30 µM; in test [4] it was greater than 10 µM; in test [5], greater than 10 µM.
Consider `Cc1ccccc1-n1c(CF)nc2ccc(N)cc2c1=O` [AFLOQUALONE], for which the AC50 at Melanocortin receptor 4 is greater than 30 µM; in test [2], 27.9 µM; in test [3] it was 13 µM; in test [4] it was greater than 30 µM; in test [5] it was greater than 10 µM.
As for `CN1CCCN(C(c2ccccc2)c2ccc(Cl)cc2)CC1` (centres undefined) [HOMOCHLORCYCLIZINE], the AC50 (in [6]; at Progesterone receptor; in [7]) was greater than 30 µM throughout.
Turning to `C[C@H](N[C@@H](CCc1ccccc1)C(=O)O)C(=O)N1Cc2ccccc2C[C@H]1C(=O)O`, the AC50 (in test [6]; on Progesterone receptor; in test [7]) was greater than 30 µM throughout.
`CCCn1cnc2c1c(=O)n(CCCCC(C)=O)c(=O)n2C` [PROPENTOFYLLINE]: the half-maximal activity concentration (AC50) (in [6]; at Progesterone receptor; in [7]) was greater than 30 µM in each case.
In the case of `O=C(O)c1cccnc1Nc1cccc(C(F)(F)F)c1` [NIFLUMIC ACID], the AC50 is greater than 10 µM on Melanocortin receptor 4; 30 µM in test [2]; greater than 30 µM in test [3]; greater than 10 µM in test [4]; greater than 10 µM in [5].
For `Cc1cc2c(cc1S(N)(=O)=O)S(=O)(=O)CCC2`, the AC50 (in test [6]; at Progesterone receptor; in test [7]) was greater than 30 µM in each case.
For the compound `CN(C)Cc1nnc2n1-c1ccc(Cl)cc1C(c1ccccc1)=NC2` [ADINAZOLAM], the half-maximal activity concentration (AC50) at Melanocortin receptor 4 is greater than 10 µM; in test [2] it was greater than 10 µM; in test [3], greater than 30 µM; in test [4], greater than 10 µM; in test [5], greater than 10 µM.
Regarding `CC(=O)OCC(=O)[C@@]1(O)CC[C@H]2[C@@H]3CCC4=CC(=O)CC[C@]4(C)[C@H]3[C@@H](O)C[C@@]21C` [HYDROCORTISONE ACETATE], the AC50 in test [6] is greater than 30 µM; on Progesterone receptor, 7.67 µM; in [7], greater than 30 µM.

(Values after ChEMBL document CHEMBL5291721, “A preclinical secondary pharmacology resource illuminates target-adverse drug reaction associations of marketed drugs” (Nat Commun, 2023).)
